PMC3408500, “Development of a High-Throughput Assay for Identifying Inhibitors of TBK1 and IKKε” (PLoS ONE, 2012)
pIC50: −log10 of the molar value. “And” between values parts separate entries of the source, which are not always exact repeats. Equal entries are not always repeated. Structures can show the parent of a compound that is named as a salt. Where two headings read alike, the source gives them in different places.

Key:
IKKε = target: T1, IKKε (Homo sapiens, UniProt Q14164); assay: MCE kinase assay, phosphorylation of 5-FAM-TBK1-Tide by IKKε; type: biochemical; conditions: for inhibition at 10 µM: read-out: percent inhibition of IKKε
T1 construct: purchased Life Technologies (Invitrogen)
T1 sequence (Q14164 1-716): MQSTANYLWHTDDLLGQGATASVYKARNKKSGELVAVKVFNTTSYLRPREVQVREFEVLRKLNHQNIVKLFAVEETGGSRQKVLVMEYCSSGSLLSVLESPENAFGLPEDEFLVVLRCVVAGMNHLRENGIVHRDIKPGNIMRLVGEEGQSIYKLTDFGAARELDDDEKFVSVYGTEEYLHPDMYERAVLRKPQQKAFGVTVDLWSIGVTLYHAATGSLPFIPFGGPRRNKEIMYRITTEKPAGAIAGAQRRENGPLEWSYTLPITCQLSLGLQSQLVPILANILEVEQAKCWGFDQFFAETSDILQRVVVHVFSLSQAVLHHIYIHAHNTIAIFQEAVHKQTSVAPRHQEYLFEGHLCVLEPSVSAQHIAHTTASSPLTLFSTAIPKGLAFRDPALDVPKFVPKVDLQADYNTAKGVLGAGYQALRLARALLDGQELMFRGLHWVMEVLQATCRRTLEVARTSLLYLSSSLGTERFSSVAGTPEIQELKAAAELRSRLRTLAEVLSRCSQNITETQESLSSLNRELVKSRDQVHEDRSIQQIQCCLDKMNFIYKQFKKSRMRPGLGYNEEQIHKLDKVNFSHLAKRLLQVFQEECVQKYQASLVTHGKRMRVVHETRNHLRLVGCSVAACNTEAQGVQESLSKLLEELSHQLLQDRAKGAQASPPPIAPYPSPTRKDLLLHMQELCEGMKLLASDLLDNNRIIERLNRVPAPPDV
Protocol: (§1) MCE operates on the principle that small fluorescently-labeled peptide substrates from ∼100 nanoliter sized aliquots of reaction samples are separable in a capillary channel etched in a quartz microfluidic chip ratio when a current is applied, [30]. […] TBK1-Tide was synthesized with an N-terminal 5– Carboxyfluorescein (5-FAM) dye for use as a substrate. […] The enzyme concentrations were then titrated and fixed to 120 nM for TBK1 and 81 nM for IKKε.
(§2) Compounds were screened at a final concentration of 10 µM in 0.1% DMSO. Two libraries of compounds were tested. […] This library was tested in duplicate to establish the reproducibility of the screen (Figure S2). A second kinase-focused library consisting of 4,727 unique and “rule of five” compliant compounds was also tested (Figures 5A and B). […]

IKKα = target: T2, IKKα (Homo sapiens, UniProt O15111); assay: MCE kinase assay, phosphorylation of FL-1 peptide by IKKα (secondary screen); type: biochemical; conditions: for inhibition at 10 µM: read-out: percent inhibition of IKKα
T2 construct: purchased Life Technologies (Invitrogen)
T2 sequence (O15111 1-745): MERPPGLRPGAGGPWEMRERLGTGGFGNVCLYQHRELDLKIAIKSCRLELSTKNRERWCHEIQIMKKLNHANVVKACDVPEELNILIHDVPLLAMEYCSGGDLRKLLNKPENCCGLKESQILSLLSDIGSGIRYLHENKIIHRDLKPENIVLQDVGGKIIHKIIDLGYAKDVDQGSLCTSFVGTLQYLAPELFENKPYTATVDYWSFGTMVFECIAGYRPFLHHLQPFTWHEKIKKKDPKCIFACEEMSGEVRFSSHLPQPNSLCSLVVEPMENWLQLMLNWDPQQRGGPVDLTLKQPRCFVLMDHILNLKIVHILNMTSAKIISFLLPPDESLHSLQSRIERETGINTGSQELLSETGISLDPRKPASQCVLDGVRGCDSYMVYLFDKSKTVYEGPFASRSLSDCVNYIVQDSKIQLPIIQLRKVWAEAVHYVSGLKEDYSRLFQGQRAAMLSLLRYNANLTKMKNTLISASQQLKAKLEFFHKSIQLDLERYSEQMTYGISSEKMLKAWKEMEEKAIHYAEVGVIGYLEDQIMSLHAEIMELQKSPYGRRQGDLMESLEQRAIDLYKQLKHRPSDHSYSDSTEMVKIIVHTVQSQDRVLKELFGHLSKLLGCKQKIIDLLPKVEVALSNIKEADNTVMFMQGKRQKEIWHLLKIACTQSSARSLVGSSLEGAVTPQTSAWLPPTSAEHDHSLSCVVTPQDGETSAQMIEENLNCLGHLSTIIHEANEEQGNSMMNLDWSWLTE
Protocol: As IKKβ and IKKα are closely related to TBK1 and IKKε, it was important to determine the specificity of any candidate inhibitors. A secondary screen was therefore performed to evaluate the ability of the top-scoring TBK1 and IKKε inhibitors to inhibit the canonical IKKs. […] Enzyme concentrations were titrated and fixed to 11.5 µM for IKKα and 1.1 µM for IKKβ and the screen was performed as described above for TBK1 and IKKε. […]
Kinase buffer contained 50 mM Tris (pH 7.5), 12 mM MgCl2, 1 mM β-glycerophosphate, 100 µM ATP, and 10 µCi γ-^32P-ATP/reaction. Reactions were incubated at 30°C for 1h. Recombinant GST-TBK1 and GST-TBK1 K38A used in the positional scanning peptide library assay were generated as described above and the assay was performed as described previously, [28]. […]

TBK1 = target: T3, TBK1 (Homo sapiens, UniProt Q9UHD2); assay: MCE (microfluidic capillary electrophoresis) kinase assay, phosphorylation of 5-FAM-TBK1-Tide by TBK1; type: biochemical; conditions: for inhibition at 10 µM: read-out: percent inhibition of TBK1
T3 construct: purchased Life Technologies (Invitrogen)
T3 sequence (Q9UHD2 1-729): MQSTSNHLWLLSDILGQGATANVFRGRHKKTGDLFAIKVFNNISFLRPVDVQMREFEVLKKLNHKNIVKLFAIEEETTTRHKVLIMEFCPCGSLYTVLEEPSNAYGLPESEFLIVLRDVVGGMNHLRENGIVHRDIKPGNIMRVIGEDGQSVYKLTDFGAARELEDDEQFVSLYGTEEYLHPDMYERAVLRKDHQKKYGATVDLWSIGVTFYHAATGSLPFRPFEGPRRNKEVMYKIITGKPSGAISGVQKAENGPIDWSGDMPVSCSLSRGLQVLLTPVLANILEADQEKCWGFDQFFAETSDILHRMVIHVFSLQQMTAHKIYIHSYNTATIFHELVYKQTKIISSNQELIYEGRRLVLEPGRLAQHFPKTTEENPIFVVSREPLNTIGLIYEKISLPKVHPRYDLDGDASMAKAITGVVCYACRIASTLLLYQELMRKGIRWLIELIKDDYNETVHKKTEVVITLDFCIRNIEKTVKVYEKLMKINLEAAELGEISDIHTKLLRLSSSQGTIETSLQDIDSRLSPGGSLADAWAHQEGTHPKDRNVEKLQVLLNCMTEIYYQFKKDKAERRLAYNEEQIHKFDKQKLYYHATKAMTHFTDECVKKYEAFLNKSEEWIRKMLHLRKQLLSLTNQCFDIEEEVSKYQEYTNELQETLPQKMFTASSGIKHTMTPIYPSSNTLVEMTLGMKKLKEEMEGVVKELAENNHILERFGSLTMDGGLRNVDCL
Protocol: as §1, §2

IKKβ = IKKβ (Homo sapiens, UniProt O14920); conditions: read-out: ATP Km of IKKβ for TBK1-Tide; room temperature
Protocol: As IKKβ and IKKα are closely related to TBK1 and IKKε, it was important to determine the specificity of any candidate inhibitors. A secondary screen was therefore performed to evaluate the ability of the top-scoring TBK1 and IKKε inhibitors to inhibit the canonical IKKs. […] Enzyme concentrations were titrated and fixed to 11.5 µM for IKKα and 1.1 µM for IKKβ and the screen was performed as described above for TBK1 and IKKε.
5-FAM-labeled TBK1-Tide for library screening was generated in the High-Throughput Peptide Synthesis and Arrays Core Facility at University of North Carolina at Chapel Hill.
Kinase buffer contained 50 mM Tris (pH 7.5), 12 mM MgCl2, 1 mM β-glycerophosphate, 100 µM ATP, and 10 µCi γ-^32P-ATP/reaction. Reactions were incubated at 30°C for 1h. Recombinant GST-TBK1 and GST-TBK1 K38A used in the positional scanning peptide library assay were generated as described above and the assay was performed as described previously, [28]. […] IKKε reactions were incubated for 2 hours at room temperature and TBK1, IKKα, and IKKβ reactions were incubated for 6 hours at room temperature.

ERRα = tested on: ERRα; set-up: method as in LOPAC library description; conditions: transient transfection assays using GAL4-ERR LBD or full-length ERR with the mSHP promoter; ref LOPAC library description; cited from earlier work
[1] = compound at 10 µM, after 2 hours (at completion of the assay), LOPAC set

Chain of IKKβ (O14920 whole entry): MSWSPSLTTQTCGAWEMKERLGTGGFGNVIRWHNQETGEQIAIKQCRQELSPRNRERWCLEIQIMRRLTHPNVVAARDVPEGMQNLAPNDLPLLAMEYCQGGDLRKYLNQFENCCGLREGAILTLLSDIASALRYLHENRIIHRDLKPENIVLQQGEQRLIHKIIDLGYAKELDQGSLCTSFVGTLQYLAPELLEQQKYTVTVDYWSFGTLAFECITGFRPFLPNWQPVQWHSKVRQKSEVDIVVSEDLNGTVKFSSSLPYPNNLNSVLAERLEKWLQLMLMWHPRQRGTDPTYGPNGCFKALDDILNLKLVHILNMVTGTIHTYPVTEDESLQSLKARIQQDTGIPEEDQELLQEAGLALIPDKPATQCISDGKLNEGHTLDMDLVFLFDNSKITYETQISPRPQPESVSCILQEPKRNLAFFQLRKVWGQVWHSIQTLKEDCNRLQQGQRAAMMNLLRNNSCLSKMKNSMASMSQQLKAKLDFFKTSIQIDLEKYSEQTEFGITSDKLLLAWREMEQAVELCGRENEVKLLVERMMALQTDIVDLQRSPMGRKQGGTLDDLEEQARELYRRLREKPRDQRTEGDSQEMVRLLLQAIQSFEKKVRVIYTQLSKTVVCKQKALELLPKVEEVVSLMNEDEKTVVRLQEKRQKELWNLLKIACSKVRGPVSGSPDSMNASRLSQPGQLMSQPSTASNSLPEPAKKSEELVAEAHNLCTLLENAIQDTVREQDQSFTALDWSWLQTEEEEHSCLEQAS

Structure (SMILES)	percent inhibition of IKKε (IKKε; [1]) [%]	percent inhibition of IKKα (IKKα; [1]) [%]	percent inhibition of TBK1 (TBK1; [1]) [%]	inhibition at 10 µM (IKKε; [1]) [%]	inhibition at 10 µM (IKKα; [1]) [%]	inhibition at 10 µM (TBK1; [1]) [%]	also measured
NC(Cc1cc(O)c(O)cc1O)C(=O)O (racemic) [UNC10100691, 6-Hydroxy-DL-DOPA]	61	29	77.5				
Nc1ncnc2c1ncn2[C@@H]1O[C@H](COP(=O)(O)OP(=O)(O)OP(=O)(O)O)[C@@H](O)[C@H]1O [ATP]							Km (IKKβ): 2 µM; Km (IKKε; TBK1-Tide fixed at 1 µM, room temperature, read-out: Km for ATP, IKKε): 4.7 µM and 4.67 µM; Km (IKKα; room temperature, read-out: ATP Km of IKKα for FL-1): 134 µM; Km (TBK1; TBK1-Tide fixed at 1 µM, room temperature, read-out: Km for ATP, TBK1): 7.5 µM and 7.54 µM
Brc1ccc([C@H]2CN3CCSC3=N2)cc1.O=C(O)C(=O)O [UNC10100081, (−)-p-Bromolevamisole oxalate]	26.5	-2	70				
CC(=O)NCCc1c[nH]c2ccccc12 [UNC10100161, N-Acetyltryptamine]				24	-1.5	74.5	
Nc1c(S(=O)(=O)O)cc(Nc2ccc(Nc3nc(Cl)nc(Nc4cccc(S(=O)(=O)O)c4)n3)c(S(=O)(=O)O)c2)c2c1C(=O)c1ccccc1C2=O [UNC10101110, Reactive Blue 2]							inhibition at 10 µM (IKKε): 67%; inhibition at 10 µM (IKKα): 55.5%; inhibition at 10 µM (TBK1): 74%

More lines, main results first:

percent inhibition of IKKε (IKKε; [1]) [%]	percent inhibition of IKKα (IKKα; [1]) [%]	percent inhibition of TBK1 (TBK1; [1]) [%]	inhibition at 10 µM (IKKε; [1]) [%]	inhibition at 10 µM (IKKα; [1]) [%]	inhibition at 10 µM (TBK1; [1]) [%]	Structure (SMILES)	also measured
48	-3	84.5				CN(C)CCC(c1ccc(Cl)cc1)c1ccccn1.O=C(O)/C=C\C(=O)O (racemic) [UNC10100321, (±)-Chlorpheniramine maleate salt]	
68	2.5	58				O=C1Nc2ccccc2/C1=C1/Nc2ccccc2/C1=N\O [UNC10100206, Indirubin-3′-oxime]	
			60	-0.5	34	CC(=O)OCC1=C(C(=O)O)N2C(=O)[C@@H](NC(=O)CSc3ccncc3)[C@H]2SC1 [UNC10100339, Cephapirin sodium salt]	
			53.5	10	76.5	Oc1c2ccccc2c2c3c(cccc13)N=N2 [UNC10100533, SP600125]	
12.5	3	67.5				O=c1cc(-c2ccccc2F)[nH]c2cc3c(cc12)OCO3 [UNC10100799, CHM-1 hydrate]	
			66	21.5	85.5	COc1ccc2c(c1)/C(=C/c1cnc[nH]1)C(=O)N2 [UNC10100994, SU9516]	
20	-0.5	80.5				CN(C)CCC(c1ccccc1)c1ccccn1.O=C(O)/C=C\C(=O)O (centres unmarked) [UNC10101037, Pheniramine maleate salt]	
10.5	28	71.5				COc1cc(/C=C(\C#N)C(=O)Nc2nnc(C(F)(F)F)s2)ccc1OCc1ccc(C(F)(F)F)cc1C(F)(F)F [UNC10101318, XCT790]	pIC50 (ERRα): […]
